Experimental findings from patent US8445712B2, “Phospholipid derivative and pH-responsive liposomes” (NOF Corporation, priority 2009, dated 2013) are described below.

A short description of the data set: Measurement test of pH-sensitiveness of liposome (release of enclosed pyranine/DPX at a given pH). The data set is classed as physicochemical. The note with it: Example 15 (Table 2) compared with Example 19 (Table 3); 11 mol % derivative in EYPC liposome. How it is done: Using the liposomes prepared in Examples 5-13 and Comparative Example 1, pH-sensitiveness measurement tests were performed.
To the liposome solution obtained in Example 5 was added phosphate buffered saline (hereinafter to be indicated as “PBS”) to adjust the lipid concentration of the liposome to 1.6 mmol/l. The PBS (2469 μl) adjusted to a given pH with 1N hydrochloric acid was placed in a quartz cell, a liposome dispersion (31 μl) was added thereto at 37° C. to adjust the lipid concentration to 20 μmol/l. After incubation at 37° C. for 15 min, fluorescence intensity (F15min) was measured. In addition, 10% aqueous Triton X-100 (manufactured by Sigma-Aldrich Japan Co. Ltd.) solution (25 μl) was added thereto, and the mixture was stirred, and the fluorescence intensity (Fmax) was measured.
The release (%) was calculated by the following formula.
[formula] F15min: fluorescence intensity at 15 min after liposome addition F0: fluorescence intensity at t=0 by measurement with PBS at pH 7.4 Fmax: fluorescence intensity after addition of Triton

“Octaglycerolglutaryl Distearylphosphatidylethanolamine 1,2-Cyclohexanedicarboxylic Acid Derivative [DSPE-CHexPG8G]”: the “pH sensitive property (comparison)” value is on record as “stronger pH sensitive property”.
